What was measured:
Assay type in all cases: cell-based
[1] = tested on: human melanoma cells (A375); conditions: FIG. 1 and FIG. 2
Protocol: (§1) A375 cells (5,000 per well in 90% RPMI-1640 plus 10% Fetal Bovine Serum [FBS]) were pre-incubated in a black clear bottom 96-well plate in an atmosphere of 5% CO2 at 37° C. for 24 hours. Stock solutions of compounds in DMSO were diluted using a buffer and dilutions were added to each well. […] The final assay pH was 7.4. The cells were incubated in RPMI-1 640 with each compound for an additional 72 to 168 hours. Alamar Blue was added and the plate was incubated for an additional 12 hours. Fluorescence intensity was measured using a Gemini plate reader with excitation at 530 nm and emission at 590 nm. A decrease of 50 percent or more (≧50%) in fluorescence intensity relative to vehicle treated controls is an indication of significant anti-cancer activity.
TGI (Total Growth Inhibition): Test compound concentration where the increase in number or mass of cells after 72 to 168 hours is reduced to equal that at time t=0.

[2] = tested on: human hepatic carcinoma cells (HepG2); test: HepG2 Tumor Cell Proliferation Assay; conditions: FIG. 3 and FIG. 4
Protocol: as §1, with “HepG2” for “A375”, “EMEM medium” for “RPMI-1640”, “[…]” for “96-well”, “EMEM medium” for “RPMI-1 640 with each compound”, “72” for “72 to 168”, “Blue (10% of culture volume)” for “Blue”

[3] = tested on: human colon cancer cells (LS174T); test: LS174T growth inhibition; conditions: FIG. 5 and FIG. 6
[4] = tested on: human head and neck squamous cell carcinoma cells (SCC 103); test: SCC103 Tumor Cell Proliferation Assay; conditions: SCC 103 cells; FIG. 7 and FIG. 8
Protocol: as §1, with “SCC 103” for “A375”, “(15,000” for “(5,000”, “EMEM medium” for “RPMI-1640”, “EMEM medium” for “RPMI-1 640 with each compound”, “72” for “72 to 168”, “Blue (10% of culture volume)” for “Blue”

Measured: growth inhibitory effect compared to Bexarotene

C=C(c1ccc(CC(C(N)=O)C(N)=O)cc1)c1cc2c(cc1C)C(C)(C)CCC2(C)C [Example 8, 2-{4-[1-(3,5,5,8,8-Pentamethyl-5,6,7,8-tetrahydro-naphthalen-2-yl)-vinyl]-benzyl}-malonamide]
enhanced activity: all assays above

C=C(c1ccc(CN2C(=O)CSC2=O)cc1)c1cc2c(cc1C)C(C)(C)CCC2(C)C [Example 10, 3-{4-[1-(3,5,5,8,8-Pentamethyl-5,6,7,8-tetrahydro-naphthalen-2-yl)-vinyl]-benzyl}-thiazolidine-2,4-dione]
enhanced activity: [1] | [4]

C=C(c1ccc(CN2C(=O)CN(C)C2=O)cc1)c1cc2c(cc1C)C(C)(C)CCC2(C)C [Example 11, 1-Methyl-3-{4-[1-(3,5,5,8,8-pentamethyl-5,6,7,8-tetrahydro-naphthalen-2-yl)-vinyl]-benzyl}-imidazolidine-2,4-dione]
enhanced activity: all assays above

C=C(c1ccc(CN2C(=O)NC(C)(C)C2=O)cc1)c1cc2c(cc1C)C(C)(C)CCC2(C)C [Example 12, 5,5-Dimethyl-3-{4-[1-(3,5,5,8,8-pentamethyl-5,6,7,8-tetrahydro-naphthalen-2-yl)-vinyl]-benzyl}-imidazolidine-2,4-dione]
enhanced activity: all assays above

C=C(c1ccc(CN2C(=O)CCNC2=O)cc1)c1cc2c(cc1C)C(C)(C)CCC2(C)C [Example 13, 3-{4-[1-(3,5,5,8,8-Pentamethyl-5,6,7,8-tetrahydro-naphthalen-2-yl)-vinyl]-benzyl}-dihydro-pyrimidine-2,4-dione]
enhanced activity: all assays above

C=C(c1ccc(CN2C(=O)N(C)C(C)(C)C2=O)cc1)c1cc2c(cc1C)C(C)(C)CCC2(C)C [Example 14, 1,5,5-Trimethyl-3-{4-[1-(3,5,5,8,8-pentamethyl-5,6,7,8-tetrahydro-naphthalen-2-yl)-vinyl]-benzyl}-imidazolidine-2,4-dione]
enhanced activity: [1] | [3] | [4]

From patent US7572816B2, “Therapeutic agents for the treatment of cancer, metabolic diseases and skin disorders” (Auspex Pharmaceuticals, Inc., priority 2004, dated 2009)
